Laboratory results as given in US20240091318A1, “COMBINATION THERAPY COMPRISING LONG ACTING GLP-1/GLUCAGON AND NPY2 RECEPTOR AGONISTS” (Boehringer Ingelheim International GmbH, priority 2022, published 2024).

Experiments:
[1] = Effect on acute food intake (AFI) in normal NMRI mice; format: in vivo; conditions: male NMRI mice, 10 nmol/kg s.c. once, % vs. vehicle group
Protocol: Effect on Acute Food Intake in Normal NMRI Mice
Male NMRI mice were obtained from Charles River (Charles River, Research Models & Services Germany GmbH) or from JanVier (JanVier Labs, France) at 5 weeks of age. […] Room temperature was controlled to 21° C.±1° C., with 60%±20% humidity.
Animals were transferred 5-7 days before the start of the study to a real-time food intake monitoring system, HM-2 system (MBRose, Denmark), to allow acclimatization to experimental conditions. As the animals were uniquely identified with microchips, each individual animal was identified by its microchip upon entry and exit from the food channel. Randomization of the mice for each study group (n=7-8) was based on body weight measured the day before the start of the study. A vehicle-treated (50 mM phosphate buffer pH7 with 5% Mannitol) group was included in each experiment. Six hours before the start of the night phase animals were fasted. One hour before the dark phase animals were dosed once subcutaneously (10 nmol/kg) with test peptide. […] The food intake of the treated groups was normalized (in %) to the average food intake of the group receiving vehicle (Table 1). Statistical significance was evaluated using One-way analysis of variance with Turkey's multiple comparison test. P<0.05 was considered statistically significant.

[2] = Effect on body weight loss and food intake in wildtype Diet Induced Obesity (DIO) mice; format: in vivo; conditions: 30 nmol/kg s.c. once daily, 5 day
From the text: Effect on Body Weight Loss in Wildtype Diet Induced Obesity Mice
Male C57BL6/J pre-fed on 60% high fat diet were obtained from The Jackson Laboratories at >16 weeks of age. Upon arrival of the Diet Induced Obesity (DIO) mice, the mice where single housed to obtain accurate and individual food intake measurements of each animal and assigned an animal number. […] During the entire study animals had ad libitum access to food and water.
Before start of treatment a stratified randomization was performed based on the body weight measured in week −1 prior study start. At study start the age of mice was around 20 weeks. Bodyweight and food intake were measured daily before compound administration. Animals were dosed around one hour before start of the night phase by subcutaneous injection of 30 nmol/kg once daily for 5 till 28 days depending on the experiment. Control animals were dosed by subcutaneous injection daily with vehicle.

## CC[C@H](C)[C@H](NC(=O)[C@H](CCC(=O)O)NC(=O)[C@H](CCC(=O)O)NC(=O)[C@@H]1CCCN1C(=O)[C@H](CO)NC(=O)[C@H](C)NC(=O)[C@H](CC(=O)O)NC(=O)[C@H](C)NC(=O)[C@H](CCC(=O)O)NC(=O)[C@@H]1CCCN1C(=O)[C@H](CCCCNC(=O)COCCOCCNC(=O)COCCOCCNC(=O)CC[C@H](NC(=O)CCCCCCCCCCCCCCCCC(=O)O)C(=O)O)NC(=O)[C@H](CCC(=O)O)NC(=O)[C@@H]1CCCN1C(=O)[C@H](C)NC(=O)CC(C)C)C(=O)N[C@@H](CCC(N)=O)C(=O)N[C@@H](CCCNC(=N)N)C(=O)N[C@@H](Cc1ccc(O)cc1)C(=O)N[C@@H](Cc1ccc(O)cc1)C(=O)N[C@H](C(=O)N[C@@H](CO)C(=O)N[C@@H](CC(C)C)C(=O)N[C@@H](CCCNC(=N)N)C(=O)N[C@@H](Cc1c[nH]cn1)C(=O)N[C@@H](Cc1ccc(O)cc1)C(=O)N[C@@H](Cc1ccc(O)cc1)C(=O)N[C@@H](CC(N)=O)C(=O)N[C@@H](Cc1c[nH]c2ccccc12)C(=O)N[C@@H](CC(C)C)C(=O)N[C@H](C(=O)N[C@@H](CCCNC(=N)N)C(=O)N[C@@H](CCC(N)=O)C(=O)N[C@@H](CCCNC(=N)N)C(=O)N[C@@H](Cc1ccc(O)cc1)C(N)=O)[C@@H](C)O)C(C)C [Compound J, N{alpha-4}-(3-methylbutanoyl)-N{epsilon-7}-[2-(2-{2-[2-(2-{2-[(4S)-4-carboxy-4-(17-carboxyheptadecanamido)butanamido]ethoxy}ethoxy)acetamido]ethoxy}ethoxy)acetamido]-[4A,7K,9E,10A,17I,18Q,22V,28Y,30W,31L]hPYY(4-36)]
[1]
  AFI 10 nmol/kg 24 h (food intake normalized to vehicle group): 29%
[2]
  BW 30 nmol/kg 5 day (body weight loss vs. vehicle group): 12.2%

## CC[C@H](C)[C@H](NC(=O)[C@H](CCC(=O)O)NC(=O)[C@H](CCC(=O)O)NC(=O)[C@@H]1CCCN1C(=O)[C@@H](NC(=O)[C@H](C)NC(=O)[C@H](CC(=O)O)NC(=O)[C@H](CCC(=O)O)NC(=O)[C@H](CCC(=O)O)NC(=O)[C@@H]1CCCN1C(=O)[C@H](CCCCNC(=O)COCCOCCNC(=O)COCCOCCNC(=O)CC[C@H](NC(=O)CCCCCCCCCCCCCCCCC(=O)O)C(=O)O)NC(=O)[C@H](CCC(=O)O)NC(=O)[C@@H]1CCCN1C(=O)[C@H](C)NC(=O)CC(C)C)[C@@H](C)O)C(=O)N[C@@H](CCC(N)=O)C(=O)N[C@@H](CCCNC(=N)N)C(=O)N[C@@H](Cc1ccc(O)cc1)C(=O)N[C@@H](Cc1ccc(O)cc1)C(=O)N[C@H](C(=O)N[C@@H](CO)C(=O)N[C@@H](CC(C)C)C(=O)N[C@@H](CCCNC(=N)N)C(=O)N[C@@H](Cc1c[nH]cn1)C(=O)N[C@@H](Cc1ccc(O)cc1)C(=O)N[C@@H](Cc1ccc(O)cc1)C(=O)N[C@@H](CC(N)=O)C(=O)N[C@@H](Cc1c[nH]c2ccccc12)C(=O)N[C@@H](CC(C)C)C(=O)N[C@H](C(=O)N[C@@H](CCCNC(=N)N)C(=O)N[C@@H](CCC(N)=O)C(=O)N[C@@H](CCCNC(=N)N)C(=O)N[C@@H](Cc1ccc(O)cc1)C(N)=O)[C@@H](C)O)C(C)C [Compound G, N{alpha-4}-(3-methylbutanoyl)-N{epsilon-7}-[2-(2-{2-[2-(2-{2-[(4S)-4-carboxy-4-(17-carboxyheptadecanamido)butanamido]ethoxy}ethoxy)acetamido]ethoxy}ethoxy)acetamido]-[4A,7K,9E,13T,17I,18Q,22V,28Y,30W,31L]hPYY(4-36)]
[1]
  AFI 10 nmol/kg 24 h (food intake normalized to vehicle group): 44%
[2]
  BW 30 nmol/kg 5 day (body weight loss vs. vehicle group): 10.6%
